This passage reports solubility and solubility in water results from patent US11291750B2, “Hydrogel condom” (THE TEXAS A & M UNIVERSITY SYSTEM, priority 2016, dated 2022).

Data set [1] can be described thus: Aqueous solubility of quercetin without and with sulfated beta-cyclodextrin (UV absorbance at 375 nm). The settings on record: aqueous sulfated beta-cyclodextrin solution, aqueous with cosolvent or surfactant or cyclodextrin. In kind it is physicochemical. From the text: FIG. 8 depicts a graph of sulfated beta-cyclodextrin formed 1:1 complex with antioxidant quercetin, showing quercetin can be encapsulated in the gel. […] In the presence of sulfated beta-cyclodextrin, the absorbance increased. The sulfated beta-cyclodextrin can form 1:1 complex with quercetin through host-guest chemistry. […] Embedment of quercetin in hydrogel and its release: The sulfated beta-cyclodextrin in the crosslinked polymer hydrogel allows drug molecules, even hydrophobic compounds, to incorporate into it through host-guest interaction. An encapsulated-quercetin hydrogel film was prepared (FIG. 8). […] The high equilibrium binding constant of the sulfated β-cyclodextrin/quercetin complex (Kf=2.53×10^4 M^−1 at 25° C.) permits encapsulation of high concentration of quercetin in gel. The fabrication of the quercetin hydrogel is similar to that mentioned above, except for alternative sulfated beta-cyclodextrin with 1:1 sulfated beta-cyclodextrin/quercetin complex. The resultant hydrogel attained similar high fracture toughness and stretching ability in the presence of quercetin (FIG. 9).

The conditions of data set [2]: 'as known'; cited from earlier work.

One may read the solubility as the dissolved amount per volume that the medium holds. A high value points to a readily soluble substance.

≈ marks a conversion by molar mass, not a printed value.

In the case of `O=c1c(O)c(-c2ccc(O)c(O)c2)oc2cc(O)cc(O)c12` [quercetin], the results for the solubility in data set [1] (in 1 mM sulfated beta-cyclodextrin) and in data set [1] (in 2 mM sulfated beta-cyclodextrin) were 42 µM (≈ 12.7 µg/mL) and 73 µM (≈ 22.1 µg/mL), respectively. The solubility in water in data set [2] was about 1.3 µM (≈ 0.393 µg/mL).
